US9351965B2, “Indazole derivatives useful as ERK inhibitors” (Merck Sharp & Dohme Corp., priority 2010, dated 2016)

Molecular target: fully phosphorylated, active Mouse ERK2 protein (Mus musculus (Mouse), UniProt P63085)
Test: Active ERK2 (aERK) IMAP assay
Assay type: biochemical
Conditions: IMAP fluorescence polarization; 30 μM ATP; 30 minute pre-incubation
Description: 14 μl of kinase buffer (10 mM Tris.HCl pH 7.2, 10 mM MgCl2, 0.01% Tween-20, 1 mM DTT) containing 0.4 ng unphosphorylated Mouse ERK2 protein was added to each well of a black 384-well assay plate. […] DMSO concentration during initial incubation is 6.7%. […] DMSO concentration during ERK activation was 4%. After one hour, reactions were terminated by addition of 60 μl IMAP detections beads in binding buffer (Molecular Devices). Binding was allowed to equilibrate for 30 minutes before reading the plate on an LJL Analyst Fluorescence Polarization plate reader.
Active ERK2 (aERK) Assay:
Activated ERK2 activity was also determined in the IMAP assay format using the procedure outlined above. […] Reactions proceeded for 30 minutes before termination by addition of 60 μl IMAP detection beads in binding buffer. Plates were read as above after 30 minute binding equilibration.

fully phosphorylated, active Mouse ERK2 protein, sequence (P63085 whole entry): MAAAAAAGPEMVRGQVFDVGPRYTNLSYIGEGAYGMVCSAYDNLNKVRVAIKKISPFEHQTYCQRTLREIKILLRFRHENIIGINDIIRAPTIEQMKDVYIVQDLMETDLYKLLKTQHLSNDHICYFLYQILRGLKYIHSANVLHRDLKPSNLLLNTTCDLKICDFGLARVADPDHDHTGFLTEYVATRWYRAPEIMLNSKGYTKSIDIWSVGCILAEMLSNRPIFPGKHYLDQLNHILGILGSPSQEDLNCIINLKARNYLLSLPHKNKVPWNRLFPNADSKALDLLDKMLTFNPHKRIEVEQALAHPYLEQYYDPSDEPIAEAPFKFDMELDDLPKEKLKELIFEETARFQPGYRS

SMILES | IC50 [nM]
Cc1cc(-c2n[nH]c3ccc(C(=O)NC4CCCC(Oc5ccccc5Cl)C4)cc23)ccn1 (single isomer, unassigned) [compound 35, N-[3-(2-chlorophenoxy)cyclohexyl]-3-(2-methyl-4-pyridinyl)-1H-indazole-5-carboxamide] | 192
Cc1cc(-c2n[nH]c3ccc(C(=O)NC4CCCC(O)(Cc5c(F)cccc5F)C4)cc23)ccn1 (single isomer, unassigned) [compound 5, N-[3-[(2,6-difluorophenyl)methyl]-3-hydroxycyclohexyl]-3-(2-methyl-4-pyridinyl)-1H-indazole-5-carboxamide] | 1000
Cc1cc(-c2n[nH]c3ccc(C(=O)NC4CCCC(O)(Cc5c(F)cccc5F)C4)cc23)ccn1 (single isomer, unassigned) [compound 6, N-[3-[(2,6-difluorophenyl)methyl]-3-hydroxycyclohexyl]-3-(2-methyl-4-pyridinyl)-1H-indazole-5-carboxamide] | 1000
Cn1cc2cc(-c3n[nH]c4ccc(C(=O)N[C@@H]5CCC[C@](O)(Cn6cnc7ccccc76)C5)cc34)ccc2n1 (relative stereo) [compound 61, N-[trans-3-(1H-benzimidazol-1-ylmethyl)-3-hydroxycyclohexyl]-3-(2-methyl-2H-indazol-5-yl)-1H-indazole-5-carboxamide] | 19.3
Cc1cc(-c2n[nH]c3ccc(C(=O)N[C@@H]4CCC[C@@](O)(Cn5ncccc5=O)C4)cc23)ccn1 (relative stereo) [compound 84, N-[cis-3-hydroxy-3-[(6-oxo-1(6h)-pyridazinyl)methyl]cyclohex-yl]-3-(2-methyl-4-pyridinyl)-1H-indazole-5-carboxamide] | 1000
Cc1cc(-c2n[nH]c3ccc(C(=O)NC4CCCC(Oc5ccccc5Cl)C4)cc23)ccn1 (single isomer, unassigned) [compound 30, N-[3-(2-chlorophenoxy)cyclohexyl]-3-(2-methyl-4-pyridinyl)-1H-indazole-5-carboxamide] | 38.6
COc1cccc(F)c1C[C@@]1(O)CCC[C@@H](NC(=O)c2ccc3[nH]nc(-c4ccc(OC(C)C)cc4)c3c2)C1 [compound 26, N-[3(S)-[(2-fluoro-6-methoxyphenyl)methyl]-3-hydroxy-1(R)-cyclohexyl]-3-[4-(1-methylethoxy)phenyl]-1H-indazole-5-carboxamide] | 79

Now from value to compound:

IC50 [nM] | SMILES
1000 | Cc1cc(-c2n[nH]c3ccc(C(=O)N[C@H]4CCC[C@@](O)(Cn5cc6c(F)cccc6n5)C4)cc23)ccn1 (relative stereo) [compound 97, N-[trans-3-[(4-fluoro-2H-indazol-2-yl)methyl]-3-hydroxycyclohexyl]-3-(2-methyl-4-pyridinyl)-1H-indazole-5-carboxamide]
32.2 | Cc1cc(-c2n[nH]c3ccc(C(=O)NN4CCC(CO)(Cc5ccccc5F)C4)cc23)ccn1 (stereo not drawn) [compound 150, N-[3-[(2-fluorophenyl)methyl]-3-(hydroxymethyl)-1-pyrrolidinyl]-3-(2-methyl-4-pyridinyl)-1H-indazole-5-carboxamide]
86.5 | Cc1cc(-c2n[nH]c3ccc(C(=O)NC4CCCC(Cn5cnc6ncccc65)C4)cc23)ccn1 (stereo not drawn) [compound 117, N-[3-(1H-imidazo[4,5-b]pyridin-1-ylmethyl)cyclohexyl]-3-(2-methyl-4-pyridinyl)-1H-indazole-5-carboxamide]
636 | Cc1cc(-c2n[nH]c3ccc(C(=O)NC4CCCC(CO)(Cc5c(F)cccc5F)C4)cc23)ccn1 (stereo not drawn) [compound 129, N-[3-[(2,6-difluorophenyl)methyl]-3-(hydroxymethyl)cyclohexyl]-3-(2-methyl-4-pyridinyl)-1H-indazole-5-carboxamide]
302 | Cc1cc(-c2n[nH]c3ccc(C(=O)NC4CCCC(Cc5ccc(F)cc5)(C(=O)O)C4)cc23)ccn1 (stereo not drawn) [compound 136, 1-[(4-fluorophenyl)methyl]-3-[[[3-(2-methyl-4-pyridinyl)-1H-indazol-5-yl]carbonyl]amino]cyclo-hexanecarboxylic acid]
